Test results published in US10736909B2, “Use of trehalose for treatment of neurological diseases” (JUNAXO, INC., priority 2016, dated 2020).
Where two headings read alike, the source gives them in different places.

Key:
Rotenone-lesioned rat = details: 2% trehalose in drinking water; Wu et al. 2015; cited from earlier work
[1] = Plasma pharmacokinetics in macaques, 1 and 7 days oral administration; type: in vivo; details: for AUC(0-inf) / Cmax / Tmax / half-life / AUC(0-t): female, monkey, plasma, po, macaque plasma; for AUC(0-t): read-out: AUC0-24h
Protocol: Three female macaques (3.81-4.67 kg) received trehalose (2.67 and 5.34 g/kg/day, oral gavage in sterile water) for 7 days. Plasma samples were collected pre-dose and 15 min, 30 min, 1 h, 2 h, 4 h, 6 h, 12 h and 24 h post-dose on days 1 and 7 and analysed for trehalose levels using a validated LC-MS/MS method and plasma exposure time courses (FIG. 2) and pharmacokinetic parameters were calculated (Table 7).

[2] = Brain and CSF trehalose levels in macaques after two days administration; type: in vivo; details: female, macaque, oral; for concentration at 1 h: 2.67 g/kg for two days
Protocol: In a subsequent step, the same 3 macaques were administered trehalose (2.67 g/kg) for two days. The macaques were then killed 1 h post-administration on day 2 and terminal brain and CSF samples collected. The brain and CSF trehalose levels were 81.3±13.8 ng/g and 562±346.5 ng/ml respectively. Similar to rats, trehalose levels in macaque brain tissue were ˜1% of the plasma level at the corresponding timepoint.

MPTP-lesioned mouse = details: 2% trehalose in drinking water; Sarkar et al. 2014; cited from earlier work
[3] = test system: Transgenic α-synuclein mouse; details: 2% trehalose in drinking water; Tanji et al. 2015; cited from earlier work
[4] = Plasma, brain and CSF trehalose levels in macaques after 17 weeks administration; type: in vivo, cynomolgus monkeys (Macaca fascicularis); details: 2.67 g/kg/day p.o. 17 weeks; for concentration at 1 h: female, cynomolgus monkey, po, 1 h after final administration
Description: Twenty-five (25), female cynomolgus monkeys (Macaca fascicularis, 8.0-9.3 years of age, 3.2-4.4 kg) were split into 3 groups (n=8-9/group) and received stereotaxic injection of AAV vectors,either a vector expressing mutant A53T human alpha-synculein (AAV1/2-A53T-alpha-synuclein) or an empty vector (AAV1/2-EV), Genedetect, Auckland, New Zealand) into the substantia nigra. The A53T aSyn expressed is of the human sequence the AAV1/2-EV is a control vector of the same serotype and viral construction. Precise stereotaxic coordinates for all surgeries were calculated prior to surgery from individual monkey MRI scans. Injections containing the AAV1/2-A53T-alpha-synuclein or empty vector were made at a speed of 0.5 μl/min and a volume of 7 μl (at a viral titre of 1.7×10^12 active particles per ml) into 4 sites of each hemisphere of the substantia nigra. Commencing on the day of surgery and continuing for 17 weeks, macaques received either vehicle (sterile drinking water) or trehalose (2.67 g/kg/day) administered as a single daily administration (2.67 g/kg/day, p.o). The macaques were then killed and striatal tissue from both hemispheres was collected and analysed for dopamine and dopamine transporter (DAT) levels. Substantia nigra tissue was collected and analysed for the number of TH^+ve cells and the amount of αSYN measured. Plasma, CSF and brain (cerebellum) samples were collected and trehalose levels analysed by LC-MS/MS.
Single plasma, brain and CSF samples were collected 1 h after the final administration of trehalose. One-hour post-dose corresponds to approximately the Tmax of orally administered trehalose in macaques. The plasma, brain and CSF trehalose levels were 2449±884 ng/ml, 129±35 ng/g and 33±9 ng/ml respectively.

α-synuclein (αSYN) = details: rodent models of PD; Tanji et al., He et al., Wu et al. 2015; cited from earlier work
rats receiving A53T αSYN = test: Cylinder test of forelimb asymmetry in AAV1/2 A53T αSYN rat model of PD; type: in vivo, Sprague-Dawley rats; details: Day 42, 2.67 g/kg, once per day p.o.
Protocol: Thirty female, Sprague-Dawley rats (280-325 g) split into 5 groups (N=4-8 rats/group) and received a unilateral injection in to the substantia nigra (at co-ordinates AP −5.2 mm; ML −2 mm relative to Bregma, DV −7.5 mm relative to skull over SN) of AAV1/2 delivering A53T alpha-synuclein (AAV1/2 αSYN) or empty vector (control). The A53T αSyn expressed is of the human sequence. Its control is an empty AAV1/2 vector of the same serotype and viral construction. Both AAV1/2 vectors were diluted in sterile phosphate buffered saline and administered at a volume of 2 μl. […]
Animal behavior was assessed pre-surgery and at 3 and 6 weeks post-surgery. Behaviour was assessed by the cylinder test to assess forelimb asymmetry with asymmetry indicating an imbalance in striatal dopaminergic function between the side injected with AAV1/2 αSYN and the contralateral side. […] Striatal tissue from both hemispheres was collected and analysed for dopamine levels. Substantia nigra tissue was collected and analysed for the number of TH^+ve cells and the amount of A53T αSYN measured. Plasma and brain (cerebellum) samples were collected and trehalose levels analysed by LC-MS/MS.

AAV α-synuclein rat = details: 2 and 5% in drinking water; He et al. 2015; cited from earlier work
[5] = 2.67 g/kg/day, 2.67 g/kg/day p.o., Day 1
[6] = 2.67 g/kg/day, 2.67 g/kg/day p.o., Day 7
[7] = 5.34 g/kg/day, 5.34 g/kg/day p.o., Day 1
[8] = 5.34 g/kg/day, 5.34 g/kg/day p.o., Day 7

OC[C@H]1O[C@H](O[C@H]2O[C@H](CO)[C@@H](O)[C@H](O)[C@H]2O)[C@H](O)[C@@H](O)[C@@H]1O [trehalose, (2R,3S,4S,5R,6R)-2-(Hydroxymethyl)-6-[(2R,3R,4S,5S,6R)-3,4,5-trihydroxy-6-(hydroxymethyl)oxan-2-yl]oxyoxane-3,4,5-triol]
Effect (Rotenone-lesioned rat): Neuroprotection | AUC(0-inf) [1, 5]: 27400 ng·h/mL | Cmax [1, 5]: 10900 ng/mL | Tmax [1, 5]: 49.8 min | half-life [1, 5]: 66 min | AUC(0-t) [1, 5]: 26700 ng·h/mL | AUC(0-inf) [1, 6]: 27400 ng·h/mL | Cmax [1, 6]: 9580 ng/mL | Tmax [1, 6]: 40.2 min | half-life [1, 6]: 90 min | AUC(0-t) [1, 6]: 26000 ng·h/mL | AUC(0-inf) [1, 7]: 80000 ng·h/mL | Cmax [1, 7]: 37000 ng/mL | Tmax [1, 7]: 40.2 min | half-life [1, 7]: 108 min | AUC(0-t) [1, 7]: 78900 ng·h/mL | AUC(0-inf) [1, 8]: 57200 ng·h/mL | Cmax [1, 8]: 22400 ng/mL | Tmax [1, 8]: 49.8 min | half-life [1, 8]: 138 min | AUC(0-t) [1, 8]: 56500 ng·h/mL | trehalose in plasma ~8 h post-dose ([1]; macaques, oral administration, ~8 h post-dose): No trehalose was measurable | concentration at 1 h ([2]; CSF, 1 h post-administration on day 2, read-out: CSF trehalose level): 562 ± 346 ng/mL | concentration at 1 h ([2]; brain, 1 h post-administration on day 2, read-out: brain trehalose level): 81.3 ± 13.8 ng/g | Kp at 1 h ([2]; brain, 2.67 g/kg, corresponding timepoint (1 h), read-out: brain trehalose level as % of plasma level): ~0.01 | Effect (MPTP-lesioned mouse): Neuroprotection | Effect (autophagy) [3]: Increased | correlation of trehalose level in the CSF with level in the brain [4]: significantly correlated | concentration at 1 h ([4]; CSF, read-out: CSF trehalose level): 33 ± 9 ng/mL | concentration at 1 h ([4]; brain (cerebellum), read-out: brain trehalose level): 129 ± 35 ng/g | concentration at 1 h ([4]; plasma, read-out: plasma trehalose level): 2450 ± 884 ng/mL | levels of α-synuclein (αSYN) (α-synuclein (αSYN)): reduces | % asymmetry (mean ± s.e.mean) (rats receiving A53T αSYN): reduced the asymmetry | Effect (AAV α-synuclein rat): Neuroprotection
